Reference: patent US4119722A, “Method for control of fungi using 4-halo-5-aryl-1,2,3,-dithiazoles” (Chevron Research Company, priority 1977, dated 1978)

Tests used:
Wild Oats (Avena fatua) = assay: Post-emergent herbicidal test; assay type: in vivo; details: post-emergence, 504 h, 33 mcg/cm^2, 3 weeks, scale 0 (no phytotoxicity) to 100 (complete kill), read-out: Herbicidal Effectiveness (O)
Experimental: (§1) Post-emergent herbicidal tests with representative compounds of this invention were made using the following method.
(§2) An acetone solution of the test compound was prepared by mixing 750 mg of the compound, 220 mg of a nonionic surfactant and 25 ml of acetone. This solution was added to approximately 125 ml of water containing 156 mg of surfactant.
(§3) This test solution was uniformly sprayed on 2 similar pots of 24-day-old plants (approximately 15 to 25 plants per pot) at a dose of 33 mcg/cm^2. After the plants had dried, they were placed in a greenhouse and then watered intermittently at their bases, as needed. The plants were observed periodically for phytotoxic effects and physiological and morphological responses to the treatment. After 3 weeks, the herbicidal effectiveness of the compound was rated based on these observations. A 0-to-100 scale was used, 0 representing no phytotoxicity and 100 representing complete kill.

[1] = tested on: Lambsquarter (Chenopodium album); assay: Post-emergent herbicidal test; assay type: in vivo; details: post-emergence, 504 h, 33 mcg/cm^2, 3 weeks, scale 0 (no phytotoxicity) to 100 (complete kill), read-out: Herbicidal Effectiveness (P)
Experimental: as §1, §2, §3

[2] = tested on: Watergrass (Echinochloa Crusgalli); assay: Post-emergent herbicidal test; assay type: in vivo; details: Echinochloa crus-galli, post-emergence, 504 h, 33 mcg/cm^2, 3 weeks, scale 0 (no phytotoxicity) to 100 (complete kill), read-out: Herbicidal Effectiveness (W)
Experimental: as §1, §2, §3

[3] = tested on: Pigweed (Amaranthus retroflexus); assay: Post-emergent herbicidal test; assay type: in vivo; details: post-emergence, 504 h, 33 mcg/cm^2, 3 weeks, scale 0 (no phytotoxicity) to 100 (complete kill), read-out: Herbicidal Effectiveness
Experimental: as §1, §2, §3

[4] = tested on: Mustard (Brassica arvensis); assay: Post-emergent herbicidal test; assay type: in vivo; details: post-emergence, 504 h, 33 mcg/cm^2, 3 weeks, scale 0 (no phytotoxicity) to 100 (complete kill), read-out: Herbicidal Effectiveness (L)
Experimental: as §1, §2, §3

[5] = tested on: Crabgrass (Digitaria sanguinalis); assay: Post-emergent herbicidal test; assay type: in vivo; details: post-emergence, 504 h, 33 mcg/cm^2, 3 weeks, scale 0 (no phytotoxicity) to 100 (complete kill), read-out: Herbicidal Effectiveness (C)
Experimental: as §1, §2, §3

Botrytis cinerea = assay: Mycelia Inhibition; assay type: cell-based; details: 25° C., 24 hours
Experimental: (§4) The compounds of the present invention were evaluated for fungicidal effectiveness by means of a mycelial inhibition test. This test is designed to measure the fungitoxic acitvity of fungicidal chemicals in terms of their degree of inhibition of mycelium growth. Each compound to be tested was dissolved in acetone to 500 ppm concentration. Paper strips were innoculated with the particular mycelium growth by covering the paper with a potato dextrose broth culture of mycelial suspension. The innoculated papers were then placed on potato dextrose agar plates and sprayed by means of a micro sprayer with the fungicidal solution. The treated paper strips were incubated at 25° C. and data is taken after 24 hours. Fungicidal activities are measured by a zone of inhibited mycelial growth from the center of the paper strip. The effectiveness of the compounds tested for fungicidal activity is reported in Table VI in terms of the microgram/cm^2 for 99% control of the fungus.

Fusarium moniloforma = assay: Mycelia Inhibition; assay type: cell-based; details: 25° C., 24 hours
Experimental: as §4

Aspergillus niger = assay: Mycelia Inhibition; assay type: cell-based; details: 25° C., 24 hours
Experimental: as §4

Rhizoctonia solani = assay: Mycelia Inhibition; assay type: cell-based; details: 25° C., 24 hours
Experimental: as §4

[6] = tested on: mite eggs (Tetramuchus urticae); assay: Mite control test, mite eggs; assay type: in vivo; details: 40-ppm leaf dip, egg mortality (non-hatching eggs) 7 days after treatment
Experimental: (§5) Compounds of the invention were tested for the control mites and mite eggs by the following procedure. Pinto bean leaves were invested with two spotted-mites (Tetramuchus urticae). The mites were then allowed to lay eggs on the leaves. After 48 hours, the leaves were dipped into a water/acetone solution containing a small amount of a non-ionic surfactant and 40-ppm of the test compound. The treated leaves were then maintained at 85° F. One day after treatment, the mortality of adult mites was determined, and 7 days after treatment, the egg mortality (non-hatching eggs) was determined.

[7] = tested on: two spotted-mites (Tetramuchus urticae); assay: Mite control test, adult mites; assay type: in vivo; details: 40-ppm leaf dip, adult mortality one day after treatment; 1440 min
Experimental: as §5

Phytophthora infestans = assay: whole plant or invertebrate; assay type: in vivo; details: in Solanum lycopersicum, 168 h, read-out: Tomato Late Blight, % Control
Septoria apii = assay type: in vivo; details: sprayed celery plants; concentration not given

Structure (SMILES) | pest or weed control at 33 µg/cm2 (Wild Oats (Avena fatua)) | pest or weed control at 33 µg/cm2 [1] | pest or weed control at 33 µg/cm2 [2] | pest or weed control at 33 µg/cm2 [3] | pest or weed control at 33 µg/cm2 [4] | pest or weed control at 33 µg/cm2 [5] | Mycelia Inhibition, for 99% control (B) (Botrytis cinerea) | Mycelia Inhibition, for 99% control (F) (Fusarium moniloforma) | Mycelia Inhibition, for 99% control (A) (Aspergillus niger) | Mycelia Inhibition, for 99% control (R) (Rhizoctonia solani) | Mite Eggs Control, % [6] | Mite Control, % [7] | pest or weed control at 250 µg/mL (Phytophthora infestans) | Celery Late Blight, % Control (Septoria apii)
Clc1nssc1=Nc1ccccc1 [Compound 1, 4-chloro-5-phenylimino-1,2,3-dithiazole] | 0% | 70% | 10% | 85% | 80% | 20% | 0.33 micrograms/cm^2 | > 1.7 micrograms/cm^2 | > 1.7 micrograms/cm^2 | > 1.7 micrograms/cm^2 |  |  |  | 
Clc1ccc(N=c2ssnc2Cl)cc1 [Compound 2] | 15% | 95% | 85% | 100% | 95% | 20% |  | 1.5 micrograms/cm^2 | 0.85 micrograms/cm^2 | 0.33 micrograms/cm^2 |  |  |  | 
Clc1ccc(N=c2ssnc2Cl)cc1Cl [Compound 5, 4-chloro-5-(3,4-dichlorophenylimino)-1,2,3-dithiazole] | 35% | 100% | 55% | 100% | 100% | 30% |  | > 1.7 micrograms/cm^2 | 1.1 micrograms/cm^2 | > 1.7 micrograms/cm^2 | 100% | 99% |  | 
Cc1ccccc1N=c1ssnc1Cl [Compound 7] | 0% | 70% | 0% | 70% | 60% | 0% | > 1.7 micrograms/cm^2 | > 1.7 micrograms/cm^2 | 0.98 micrograms/cm^2 | > 1.7 micrograms/cm^2 |  |  |  | 
O=[N+]([O-])c1cccc(N=c2ssnc2Cl)c1 [Compound 8] | 0% | 40% | 0% | 30% | 35% | 0% | 1.3 micrograms/cm^2 | > 1.7 micrograms/cm^2 | > 1.7 micrograms/cm^2 | > 1.7 micrograms/cm^2 |  |  | 44% | 
Cc1cccc(C)c1N=c1ssnc1Cl [Compound 10] | 0% | 30% | 0% | 60% | 75% | 0% |  |  |  |  |  |  |  | 
Cc1cc(C)c(N=c2ssnc2Cl)c(C)c1 [Compound 11] |  |  |  |  |  |  | > 1.7 micrograms/cm^2 | > 1.7 micrograms/cm^2 | > 1.7 micrograms/cm^2 | 0.98 micrograms/cm^2 |  |  |  | 
Clc1nssc1=Nc1cccc(Br)c1 [Compound 12] | 30% | 55% | 30% | 85% | 100% | 30% | > 1.7 micrograms/cm^2 | > 1.7 micrograms/cm^2 | > 1.7 micrograms/cm^2 | 1.4 micrograms/cm^2 | 78% |  |  | 
Clc1ccccc1N=c1ssnc1Cl [Compound 14] | 0% | 100% | 40% | 93% | 100% | 30% |  |  |  |  | 0% | 70% |  | 
Clc1cccc(N=c2ssnc2Cl)c1 [Compound 15] | 30% | 80% | 45% | 85% | 98% | 10% | > 1.7 micrograms/cm^2 | > 1.7 micrograms/cm^2 | > 1.7 micrograms/cm^2 | 0.98 micrograms/cm^2 |  |  | 68% | 
Clc1nssc1=Nc1ccc2ccccc2c1 [Compound 16] | 0% | 70% | 90% | 85% | 100% | 20% |  |  |  |  |  |  | 73% | 
O=[N+]([O-])c1ccc(Oc2cccc(N=c3ssnc3Cl)c2)c(C(F)(F)F)c1 [Compound 17] |  |  |  |  |  |  |  |  |  |  |  |  | 62% | 56%
O=[N+]([O-])c1ccc(Oc2ccc(N=c3ssnc3Cl)cc2)cc1 [Compound 19] |  |  |  |  |  |  |  | > 1.7 micrograms/cm^2 | > 1.7 micrograms/cm^2 | 0.88 micrograms/cm^2 | 78% | 0% | 51% | 62%
O=[N+]([O-])c1ccc(Oc2ccccc2N=c2ssnc2Cl)cc1 [Compound 20] |  |  |  |  |  |  |  | > 1.7 micrograms/cm^2 | > 1.7 micrograms/cm^2 | 1.3 micrograms/cm^2 |  |  | 80% | 62%
Fc1ccc(N=c2ssnc2Cl)cc1 [Compound 24] | 40% | 70% | 60% | 70% | 100% | 60% |  |  |  |  |  |  |  | 
Cc1ccc(N=c2ssnc2Cl)cc1 [Compound 25] | 30% | 45% | 55% | 90% | 100% | 35% | 0.76 micrograms/cm^2 | > 1.7 micrograms/cm^2 | 1.5 micrograms/cm^2 | 0.92 micrograms/cm^2 |  |  |  | 
Oc1c(Cl)cc(N=c2ssnc2Cl)cc1Cl [Compound 26] |  |  |  |  |  |  | > 1.7 micrograms/cm^2 | > 1.7 micrograms/cm^2 | > 1.7 micrograms/cm^2 | 1.3 micrograms/cm^2 |  |  |  | 
N#Cc1ccccc1N=c1ssnc1Cl [Compound 29] |  |  |  |  |  |  |  |  |  |  |  |  |  | 44%
N#Cc1cc(C(F)(F)F)ccc1Oc1cccc(N=c2ssnc2Cl)c1 [Compound 30] |  |  |  |  |  |  |  |  |  |  |  |  |  | 80%
